From patent publication US20260159486A1, “BENZO[H]QUINAZOLINE-4-AMINE DERIVATIVES FOR THE TREATMENT OF CANCER” (Redona Therapeutics, Inc., priority 2021, published 2026)

Experiments:
[1] = target: T1, recombinant human CLK3 (Homo sapiens, UniProt P49761); test: CLK3 kinase assay (LANCE Ultra); assay type: biochemical; conditions: CLK3 0.5 nM, ATP 300 μM, 3 hours at 30° C.
T1 construct: purchased Thermo Fisher Scientific PV3826
Protocol: CLK3 kinase activity was measured using the LANCE® Ultra technology (PerkinElmer) essentially as recommended by the supplier. Briefly, 2.5 μL of test sample at 4× the desired final concentration in 4% DMSO were dispensed into white, low volume, round bottom, 384 well plates (Corning, cat. no. 4512). 5 μL of a mixture containing recombinant human CLK3 (Thermo Fisher Scientific, cat. no. PV3826) and the labeled peptide substrate ULight™-CREBtide (PerkinElmer, cat. no. TRF0107) prepared in 1.33× kinase buffer (Thermo Fisher Scientific, cat. no. PV3189) were then added. Finally, the reactions were started by adding 2.5 μL of a 4× solution of ATP in kinase buffer. The plates were sealed with adhesive foils and incubated for 3 hours at 30° C. in the dark. The final concentrations of CLK3, ULight™-CREBtide, and ATP were 0.5 nM, 50 nM, and 300 μM, respectively. 5 μL of 40 mM EDTA were then added to terminate the reactions. The Eu-anti-phospho-CREB antibody (PerkinElmer, cat. no. TRF0200) diluted in LANCE® detection buffer (PerkinElmer, cat. no. CR97) was then added to a final concentration of 2 nM and the reactions were incubated for 1 hour at room temperature in the dark. The signals were measured using a Synergy 4 reader (BioTek) with a 320/80 nm filter for the excitation and 620/10 nm and 665/8 nm filters for the donor and acceptor emission, respectively. Relative inhibition values were calculated by normalizing the raw data using solvent control wells (0% inhibition) and wells that received no ATP (100% inhibition). IC50 values were calculated by fitting the concentration-response data to a sigmoidal 4-parameter logistic model. IC50 values for CLK3 are determined from duplicate measurements at ten different concentrations (serial 1:3 dilutions).

[2] = system: MDA-MB-231 cells; test: MDA-MB-231 proliferation assay; assay type: cell-based; conditions: Homo sapiens, MDA-MB-231, 72 h, YO-PRO-1 Iodide readout
Excerpt: (§1) MDA-MB-231 and CAL-51 Proliferation Assay
(§2) Cells (MDA-MB-231 (American Type Culture Collection (ATCC), #HTB-26) or CAL-51 (Deutsche Sammlung von Mikroorganismen und Zellkulturen (DSMZ), #ACC302) as applicable) were cultivated in DMEM High Glucose (4.5 g/L) with L-Glutamine (BioConcept, cat. no. 1-26F03-I) supplemented with 1% Na-pyruvate (Sigma, cat. no. S8636), 1% Penicillin-Streptomycin (BioConcept, cat. no. 4-01F00H), and 10% FBS (Sigma, cat. no. F9665) using standard techniques. Cells were seeded in black, clear-bottom 384 well plates for tissue culture (Greiner Bio-One, cat. no. 781091) at a density of 750 cells per well in 20 μL medium and the plates were incubated overnight at 37° C. with 5% CO2 prior to treatment. Experimental compounds were serially diluted in DMSO to 200× the desired final concentrations. The solutions were then diluted 1:40 with culture medium and 5 μL aliquots were mixed into the wells containing the cells. The final concentration of DMSO was 0.5%. The plates were incubated for 72 hours and cell numbers were then measured using YO-PRO™-1 Iodide (ThermoFisher Scientific, cat. no. Y3603) essentially as recommended by the manufacturer. Briefly, a 12.5 μM solution of YO-PRO™_1 Iodide in 5× YO—PRO buffer (100 mM Na-citrate, 130 mM NaCl, pH 4) was combined with an equal volume of lysis buffer (0.6% NP-40, 30 mM EDTA, 30 mM EGTA, 0.33× YO—PRO buffer) and 12.5 μL of the mixture were dispensed into each well. The plates were incubated at room temperature in the dark for 30 minutes. Fluorescence intensity signals were then measured on a Synergy 4 reader (BioTek) using 485/20 nm and 530/25 nm filters for the excitation and emission, respectively. Relative proliferation values were calculated by normalizing the raw data using DMSO-treated cells (100% proliferation) and the signals obtained from cells that were evaluated at the time of compound addition (0% proliferation). The concentration-response data were fitted to a sigmoidal 4-parameter logistic model with the maximum constrained to 100%. GI50 values were calculated from the curves as the compound concentrations reducing proliferation to 50%.

[3] = system: CAL-51 cells; test: CAL-51 proliferation assay; assay type: cell-based; conditions: Homo sapiens, CAL-51, 72 h, YO-PRO-1 Iodide readout
Excerpt: as §1, §2

T1 sequence (P49761 whole entry): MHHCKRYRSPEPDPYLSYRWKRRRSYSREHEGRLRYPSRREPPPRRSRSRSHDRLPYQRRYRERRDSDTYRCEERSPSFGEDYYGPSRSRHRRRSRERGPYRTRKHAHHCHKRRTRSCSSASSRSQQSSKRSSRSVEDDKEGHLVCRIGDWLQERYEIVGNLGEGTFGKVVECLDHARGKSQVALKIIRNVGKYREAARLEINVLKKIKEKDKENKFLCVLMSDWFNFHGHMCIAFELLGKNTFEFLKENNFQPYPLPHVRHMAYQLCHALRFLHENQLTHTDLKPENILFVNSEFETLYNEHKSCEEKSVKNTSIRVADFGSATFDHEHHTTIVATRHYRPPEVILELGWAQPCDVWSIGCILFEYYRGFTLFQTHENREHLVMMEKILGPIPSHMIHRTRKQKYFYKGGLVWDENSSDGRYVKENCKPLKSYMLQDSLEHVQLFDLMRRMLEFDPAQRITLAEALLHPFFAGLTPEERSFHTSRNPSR

## COCCN[C@H]1CC[C@H](Oc2ccc3c(c2N(C)CCC#N)CC(C)(C)c2c(N)ncnc2-3)CC1 [Example 53, 3-[[4-amino-8-[trans-4-(2-methoxyethylamino)cyclohexoxy]-5,5-dimethyl-6H-benzo[h]quinazolin-7-yl]-methyl-amino]propanenitrile]
[1]
  IC50: < 0.03 µM
[2]
  GI50: < 0.1 µM
[3]
  GI50: < 0.1 µM

## C#CCCN(C)c1c(O[C@H]2CC[C@H](N)CC2)ccc2c1CC(C)(C)c1c(N)ncnc1-2 [Example 54, 8-(trans-4-aminocyclohexoxy)-N7-but-3-ynyl-N7,5,5-trimethyl-6H-benzo[h]quinazoline-4,7-diamine]
[1]
  IC50: < 0.03 µM
[2]
  GI50: < 0.1 µM
[3]
  GI50: < 0.1 µM

## COc1ccc2c(c1N1CCC(C#N)C1)CC(C)(C)c1c(N)ncnc1-2 (stereo not drawn) [Example 55, 1-(4-amino-8-methoxy-5,5-dimethyl-6H-benzo[h]quinazolin-7-yl)pyrrolidine-3-carbonitrile]
[1]
  IC50: 0.03 to 0.1 µM
[2]
  GI50: < 0.1 µM
[3]
  GI50: < 0.1 µM

## CC1(C)Cc2c(ccc(O[C@H]3CC[C@H](N)CC3)c2N2CC=CC2=O)-c2ncnc(N)c21 [Example 56, 1-[4-amino-8-(trans-4-aminocyclohexoxy)-5,5-dimethyl-6H-benzo[h]quinazolin-7-yl]-2H-pyrrol-5-one]
[1]
  IC50: 0.101 to 1 µM
[2]
  GI50: > 2 µM
[3]
  GI50: > 2 µM

## COc1ccn(-c2c(O[C@H]3CC[C@H](N)CC3)ccc3c2CC(C)(C)c2c(N)ncnc2-3)c1 [Example 57, 8-(trans-4-aminocyclohexoxy)-7-(3-methoxypyrrol-1-yl)-5,5-dimethyl-6H-benzo[h]quinazolin-4-amine]
[1]
  IC50: 0.03 to 0.1 µM
[2]
  GI50: 0.1 to 2 µM
[3]
  GI50: < 0.1 µM

## CN(CCCC#N)c1c(O[C@H]2CC[C@H](N)CC2)ccc2c1CC(C)(C)c1c(N)ncnc1-2 [Example 58, 4-[[4-amino-8-(4-trans-aminocyclohexoxy)-5,5-dimethyl-6H-benzo[h]quinazolin-7-yl]-methyl-amino]butanenitrile]
[1]
  IC50: < 0.03 µM
[2]
  GI50: 0.1 to 2 µM
[3]
  GI50: < 0.1 µM

## CN(CCO)c1c(O[C@H]2CC[C@H](N)CC2)ccc2c1CC1(CCCC1)c1c(N)ncnc1-2 [Example 59, 2-[[4-amino-8-(4-trans-aminocyclohexoxy)spiro[6H-benzo[h]quinazoline-5,1′-cyclopentane]-7-yl]-methyl-amino]ethanol]
[1]
  IC50: < 0.03 µM
[2]
  GI50: 0.1 to 2 µM
[3]
  GI50: < 0.1 µM

## Nc1ncnc2c1C1(CCCC1)Cc1c-2ccc(O[C@H]2CC[C@H](N)CC2)c1NCCO [Example 60, 2-[[4-amino-8-(4-trans-aminocyclohexoxy)spiro[6H-benzo[h]quinazoline-5,1′-cyclopentane]-7-yl]amino]ethanol]
[1]
  IC50: 0.03 to 0.1 µM
[2]
  GI50: 0.1 to 2 µM
[3]
  GI50: 0.1 to 2 µM

## COCCCc1c(OC)ccc2c1CC(C)(C)c1c(N)ncnc1-2 [Example 61, 8-methoxy-7-(3-methoxypropyl)-5,5-dimethyl-6H-benzo[h]quinazolin-4-amine]
[1]
  IC50: 0.101 to 1 µM
[2]
  GI50: 0.1 to 2 µM
[3]
  GI50: 0.1 to 2 µM

## COCCNc1c(O[C@H]2CC[C@H](N)CC2)ccc2c1CC1(CCCC1)c1c(N)ncnc1-2 [Example 62, 8-(trans-4-aminocyclohexoxy)-N7-(2-methoxyethyl)spiro[6H-benzo[h]quinazoline-5,1′-cyclopentane]-4,7-diamine]
[1]
  IC50: 0.101 to 1 µM
[2]
  GI50: 0.1 to 2 µM
[3]
  GI50: 0.1 to 2 µM

## COCCS(=O)(=O)N(C)c1c(O[C@H]2CC[C@H](N)CC2)ccc2c1CC(C)(C)c1c(N)ncnc1-2 [Example 64, N-[4-amino-8-(trans-4-aminocyclohexoxy)-5,5-dimethyl-6H-benzo[h]quinazolin-7-yl]-2-methoxy-N-methyl-ethanesulfonamide]
[1]
  IC50: < 0.03 µM
[2]
  GI50: < 0.1 µM
[3]
  GI50: < 0.1 µM

## CCOC(=O)CNc1c(O[C@H]2CC[C@@H](N)CC2)ccc2c1CC1(CCCC1)c1c(N)ncnc1-2 [Example 65, ethyl 2-[[4-amino-8-(cis-4-aminocyclohexoxy)spiro[6H-benzo[h]quinazoline-5,1′-cyclopentane]-7-yl]amino]acetate]
[1]
  IC50: 0.03 to 0.1 µM
[2]
  GI50: 0.1 to 2 µM
[3]
  GI50: 0.1 to 2 µM
